Assay results as given in US20210220331A1, “INHIBITORS OF IRES-MEDIATED PROTEIN SYNTHESIS” (The Regents of the University of California, priority 2016, published 2021).

Tests used:
Assay type in all cases: cell-based
human c-myc IRES = assay: Dicistronic IRES mRNA reporter assay (firefly luciferase), c-myc IRES; settings: LN229; relative to values obtained with parent compound C11
Procedure: (§1) Western blot and quantitative RT-PCR analyses were performed as previously described (19). For Western blotting, cells or tissues were lysed in RIPA (lysis) buffer containing protease inhibitor cocktail and phosSTOP phosphatase inhibitor cocktail (Roche) and extracts resolved by SDSPAGE. Proteins were transferred to PVDF membranes and incubated with the indicated antibodies. For IRES reporter assays, the indicated mRNA reporters were cotransfected into cells with pSVβ-galactosidase to normalize for transfection efficiency as described previously (16). Cells were harvested 18 h following transfection and Renilla, firefly and β-galactosidase activities determined using the Dual-Glo Luciferase and β-galactosidase assay systems (Promega).
(§2) (B) Schematic diagrams of the dicistronic constructs used in this study. Constructs used are pRF, pRCD1F, which contains the human cyclin D1 IRES, pRmycF, containing the human c-myc IRES, pRp27F, containing the human p27Kip1 IRES and pRECMVF, containing the IRES from encephalomyocarditis virus. (C) Relative Renilla and firefly luciferase activities obtained from LN229 GBM cells transfected with the indicated constructs in the absence or presence of the inhibitor C11. The mean and +SD are shown for three independent experiments. […] (D) RNA-pull down assays utilizing biotinylated cyclin D1 or c-MYC IRES RNAs. Cytoplasmic extracts of LN229 cells treated with C11 (50 nM) as indicated were incubated with biotinylated cyclin D1 or c-MYC IRES RNAs and precipitated with streptavidin-Sepharose beads. Input and bound fractions were analyzed by immunoblotting using hnRNP A1 antibodies. […] RT-PCR measurements were performed in quadruplicate and the mean and +S.D. are shown. […] (F) Top panel, LN229 cells were treated with C11 as indicated and RT-PCR splicing analysis for Max exon 5 performed as described in the Experimental Methods section. Middle panel, LN229 cells treated with C11 (50 nM) as indicated, were lysed and immunoprecipitated using either eIF-4E or control IgG antibodies. Bound CCND1 or c-MYC RNAs were detected via RT-PCR. The mean and +S.D. are shown for three independent experiments. Bottom panel, cyclin D1 and c-MYC protein levels from the indicated GBM cell lines in the absence or presence of C11 at 24 h following treatment. C11 specifically blocks c-Myc IRES-mediated translation initiation by disrupting the ITAF hnRNP A1-IRES interaction.
(§3) Several dicistronic IRES mRNA reporter constructs were utilized, shown in FIG. 1B, in which the indicated IRES sequences were inserted within the intercistronic region. LN229 cells transiently transfected with these constructs were assayed for Renilla and firefly luciferase activities, which are readouts of cap-dependent and IRES-mediated translation initiation, respectively (16). […]

LN229 cells [1] = assay: Apoptosis via Annexin V staining in LN229; settings: LN229 cotreated with PP242 (50 nM) and analog (100 nM), 24 h
human cyclin D1 IRES = assay: Dicistronic IRES mRNA reporter assay (firefly luciferase), cyclin D1 IRES; settings: LN229; relative to values obtained with parent compound C11
Procedure: as §1, §2, §3

LN229 cells [2] = assay: Combination analysis with PP242 (XTT, combination index) in LN229; settings: combination of PP242 and analog, CI=1.0 dose additive, CI<0.5 synergy, CI<0.3 strong synergy
Source text: Fold decrease in either PP242-induced cyclin D1 or c-MYC IRES activity in LN229 relative to values obtained with the parent compound C11 are shown for each analog. […] CI=1.0 (dose additive), CI<0.5 (synergy), CI<0.3 (strong synergy).
The structure-activity relationships (SAR) for C11 and related compounds were investigated by synthesizing and testing the analogs listed in Table 1. […] The degree of apoptotic cell death following co-treatment with analog and PP242 was also monitored.

| SMILES | c-myc (decrease): fold decrease in PP242-induced c-MYC IRES activity (human c-myc IRES) [fold] | % Apoptosis (100 nM) (LN229 cells [1]) [%] | Cyclin D1 (decrease): fold decrease in PP242-induced cyclin D1 IRES activity (human cyclin D1 IRES) [fold] | CI ED50, 1:100 (combination index) (LN229 cells [2]) |
| --- | --- | --- | --- | --- |
| COc1ccc(CN2C(=O)C=CC2=O)c(OC)c1 [IRES-J000, 1-((2,4-Dimethoxyphenyl)methyl)-1H-pyrrole-2,5-dione] | 1.01 ± 0.03 | 25.6 | 1.05 ± 0.21 | 0.51 |
| O=C1C=CC(=O)N1Cc1ccccc1 [IRES-J001, 1-Phenylmethyl-1H-pyrrole-2,5-dione] | 1.12 ± 0.13 | 30.2 | 1.49 ± 0.05 | 0.89 |
| COc1ccc(CN2C(=O)C=CC2=O)cc1 [IRES-J002, 1-((4-Methoxyphenyl)methyl)-1H-pyrrole-2,5-dione] | 1.37 ± 0.21 | 28.6 | 1.60 ± 0.18 | 0.86 |
| O=C1C=CC(=O)N1Cc1ccc(F)cc1 [IRES-J003, 1-((4-Fluorophenyl)methyl)-1H-pyrrole-2,5-dione] | 1.19 ± 0.04 | 27.1 | 0.97 ± 0.06 | 0.88 |
| COc1ccc(CN2C(=O)C(C)=C(C)C2=O)c(OC)c1 [IRES-J004, 1-((2,4-Dimethoxyphenyl)methyl)-3,4-dimethyl-1H-pyrrole-2,5-dione] | 1.39 ± 0.11 | 24.8 | 1.42 ± 0.07 | 0.82 |
| COc1ccc(CN2C(=O)C(c3ccccc3)=C(c3ccccc3)C2=O)c(OC)c1 [IRES-J005, 1-((2,4-Dimethoxyphenyl)methyl)-3,4-diphenyl-1H-pyrrole-2,5-dione] | 1.28 ± 0.16 | 23.5 | 1.32 ± 0.14 | 0.91 |
| COc1ccc(CN2C(=O)CCC2=O)c(OC)c1 [IRES-J006, 1-((2,4-Dimethoxyphenyl)methyl)pyrrolidine-2,5-dione] | 1.25 ± 0.19 | 20.1 | 1.26 ± 0.10 | 0.94 |
| COc1ccc(N2C(=O)C=CC2=O)cc1 [IRES-J008, 1-(4-Methoxyphenyl)-1H-pyrrole-2,5-dione] | 5.92 ± 0.10 | 75.7 | 5.58 ± 0.16 | 0.39 |
| O=C1c2ccccc2C(=O)N1Cc1ccccc1 [IRES-J010, 2-(Phenylmethyl)isoindoline-1,3-dione] | 1.94 ± 0.25 | 19.7 | 1.77 ± 0.16 | 0.83 |
| O=C1c2ccccc2C(=O)N1Nc1ccccc1 [IRES-J011, 2-(Phenylamino)isoindoline-1,3-dione] | 1.64 ± 0.18 | 22.8 | 1.91 ± 0.1 | 0.86 |
| O=C1c2ccccc2C(=O)N1N(c1ccccc1)c1ccccc1 [IRES-J012, 2-(Diphenylamino)isoindoline-1,3-dione] | 1.53 ± 0.17 | 20.1 | 1.02 ± 0.31 | 0.89 |
| COc1ccc(N2C(=O)c3ccccc3C2=O)cc1 [IRES-J013, 2-(4-Methoxyphenyl)isoindoline-1,3-dione] | 1.72 ± 0.06 | 19.2 | 1.17 ± 0.21 | 0.85 |
| CN(C)c1ccc(N2C(=O)c3ccccc3C2=O)cc1 [IRES-J014, 2-(4-(Dimethylamino)phenyl)isoindoline-1,3-dione] | 1.33 ± 0.11 | 20.6 | 1.86 ± 0.27 | 0.84 |
| COCCCN1C(=O)c2ccccc2C1=O [IRES-J015, 2-(3-Methoxypropyl)isoindoline-1,3-dione] | 1.25 ± 0.24 | 18.3 | 1.61 ± 0.15 | 0.88 |
